# Results from patent publication US10669269B2, “Substituted N-(1H-indazol-4-yl)imidazo[1,2-a]pyridine-3-carboxamide compounds as type III receptor tyrosine kinase inhibitors” (ARRAY BIOPHARMA INC., priority 2010, dated 2020).
# Structures can show the parent of a compound that is named as a salt.
# Key:
# [1] = target: T1, cFMS (Homo sapiens, UniProt P07333); experiment: cFMS Cell-Based Assay (Example C); conditions: averaged IC50; phospho-cFMS in THP-1 cells stimulated with 250 ng/mL recombinant human MCSF; read-out: cFMS Cell ELISA IC50
# T1 construct: THP-1 cells (human acute monocytic leukemia cell line) were serum-starved for 4 hours; endogenous in cells; host or cells: THP-1 cells (human acute monocytic leukemia cell line)
# T1 sequence (P07333 20-972): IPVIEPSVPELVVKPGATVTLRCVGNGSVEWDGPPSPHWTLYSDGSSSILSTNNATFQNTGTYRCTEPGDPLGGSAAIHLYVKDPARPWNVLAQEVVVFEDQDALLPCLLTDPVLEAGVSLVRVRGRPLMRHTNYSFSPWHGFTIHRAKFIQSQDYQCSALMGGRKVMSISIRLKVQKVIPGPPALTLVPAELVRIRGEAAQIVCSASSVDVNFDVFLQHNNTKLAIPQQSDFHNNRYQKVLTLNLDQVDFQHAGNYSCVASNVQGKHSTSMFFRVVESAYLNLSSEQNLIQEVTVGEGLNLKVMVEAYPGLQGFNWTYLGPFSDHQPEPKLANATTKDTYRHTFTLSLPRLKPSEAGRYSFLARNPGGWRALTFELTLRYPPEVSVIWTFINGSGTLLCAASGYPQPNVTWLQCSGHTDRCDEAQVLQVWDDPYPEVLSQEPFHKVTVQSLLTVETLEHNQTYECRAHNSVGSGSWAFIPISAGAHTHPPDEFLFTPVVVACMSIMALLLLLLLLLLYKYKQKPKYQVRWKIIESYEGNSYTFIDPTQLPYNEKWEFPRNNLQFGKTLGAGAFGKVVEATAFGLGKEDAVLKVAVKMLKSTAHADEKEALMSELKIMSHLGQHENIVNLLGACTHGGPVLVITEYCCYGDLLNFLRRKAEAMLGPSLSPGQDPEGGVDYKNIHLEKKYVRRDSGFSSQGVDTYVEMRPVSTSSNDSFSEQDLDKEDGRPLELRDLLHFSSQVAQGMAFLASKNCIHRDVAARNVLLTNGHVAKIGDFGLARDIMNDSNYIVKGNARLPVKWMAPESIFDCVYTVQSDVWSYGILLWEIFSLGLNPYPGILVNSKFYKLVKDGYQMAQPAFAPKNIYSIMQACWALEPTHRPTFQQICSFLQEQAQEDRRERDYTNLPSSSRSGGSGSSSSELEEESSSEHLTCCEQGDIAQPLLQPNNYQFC
# How it was run: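 Phosphotyrosine on cFMS, captured from lysates and quantified by ELISA, reads receptor activation after 1 min of 250 ng/mL human MCSF. Beforehand, THP-1 cells were serum-starved for 4 h and exposed to compound for 1 h (9 points, 3-fold, typically up to 5,000 nM). IC50 from a 4-parameter logistic fit as 50 percent of control.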
# [2] = target: T2, c-KIT (Homo sapiens, UniProt P10721); experiment: c-KIT Cell-Based Assay (Example D); conditions: averaged IC50; phospho-c-KIT in M-07e cells stimulated with 150 ng/ml recombinant human SCF; read-out: cKIT Cell ELISA IC50
# T2 construct: M-07e cells (human acute megakaryoblastic leukemia cell line) were serum-starved for 4 hours; endogenous in cells; host or cells: M-07e cells (human acute megakaryoblastic leukemia cell line)
# T2 sequence (P10721 26-976): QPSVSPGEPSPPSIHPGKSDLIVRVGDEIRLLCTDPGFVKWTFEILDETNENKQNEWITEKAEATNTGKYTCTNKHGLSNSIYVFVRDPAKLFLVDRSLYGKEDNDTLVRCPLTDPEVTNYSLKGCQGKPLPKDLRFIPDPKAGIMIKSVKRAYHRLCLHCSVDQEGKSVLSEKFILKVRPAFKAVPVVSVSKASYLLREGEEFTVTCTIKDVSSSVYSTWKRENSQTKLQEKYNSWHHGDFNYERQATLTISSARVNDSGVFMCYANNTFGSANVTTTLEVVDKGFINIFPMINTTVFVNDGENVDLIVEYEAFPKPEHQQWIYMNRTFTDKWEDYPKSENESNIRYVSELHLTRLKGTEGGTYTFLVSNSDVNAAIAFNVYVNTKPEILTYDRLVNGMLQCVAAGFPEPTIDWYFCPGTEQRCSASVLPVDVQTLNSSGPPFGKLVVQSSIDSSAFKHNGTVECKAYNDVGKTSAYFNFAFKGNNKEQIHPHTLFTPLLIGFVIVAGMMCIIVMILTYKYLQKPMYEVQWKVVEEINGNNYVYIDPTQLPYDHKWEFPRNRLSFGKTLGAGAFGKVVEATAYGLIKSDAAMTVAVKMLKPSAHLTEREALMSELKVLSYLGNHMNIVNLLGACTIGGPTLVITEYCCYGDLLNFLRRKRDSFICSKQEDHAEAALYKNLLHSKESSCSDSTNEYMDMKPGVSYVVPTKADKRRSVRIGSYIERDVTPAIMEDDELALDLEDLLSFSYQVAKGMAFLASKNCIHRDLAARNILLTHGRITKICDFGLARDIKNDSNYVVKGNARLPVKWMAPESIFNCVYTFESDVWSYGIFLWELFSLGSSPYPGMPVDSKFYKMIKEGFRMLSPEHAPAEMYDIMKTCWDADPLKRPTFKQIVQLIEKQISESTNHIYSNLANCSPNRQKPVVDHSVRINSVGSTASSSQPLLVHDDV
# How it was run: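 Phospho-c-KIT ELISA readout, calibrated with purified phospho-SCF R, gave IC50 (4-parameter fit, 50% of control). Before lysis, M-07e cells were starved 4 h, exposed 1 h to a 9-point 3-fold series (highest usually 5,000 nM), and stimulated with 150 ng/ml SCF for 4 min.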
# [3] = target: T3, PDGFR beta (Homo sapiens, UniProt P09619); experiment: Phospho PDGFR Cell Assay, sandwich ELISA (Example A); assay type: cell-based; conditions: averaged IC50, PDGFR beta phosphorylation in HS27 human fibroblast cell line, PDGF-BB stimulation 5 minutes
# T3 construct: endogenous in cells; host or cells: HS27 human fibroblast cell line
# T3 sequence (P09619 33-1106): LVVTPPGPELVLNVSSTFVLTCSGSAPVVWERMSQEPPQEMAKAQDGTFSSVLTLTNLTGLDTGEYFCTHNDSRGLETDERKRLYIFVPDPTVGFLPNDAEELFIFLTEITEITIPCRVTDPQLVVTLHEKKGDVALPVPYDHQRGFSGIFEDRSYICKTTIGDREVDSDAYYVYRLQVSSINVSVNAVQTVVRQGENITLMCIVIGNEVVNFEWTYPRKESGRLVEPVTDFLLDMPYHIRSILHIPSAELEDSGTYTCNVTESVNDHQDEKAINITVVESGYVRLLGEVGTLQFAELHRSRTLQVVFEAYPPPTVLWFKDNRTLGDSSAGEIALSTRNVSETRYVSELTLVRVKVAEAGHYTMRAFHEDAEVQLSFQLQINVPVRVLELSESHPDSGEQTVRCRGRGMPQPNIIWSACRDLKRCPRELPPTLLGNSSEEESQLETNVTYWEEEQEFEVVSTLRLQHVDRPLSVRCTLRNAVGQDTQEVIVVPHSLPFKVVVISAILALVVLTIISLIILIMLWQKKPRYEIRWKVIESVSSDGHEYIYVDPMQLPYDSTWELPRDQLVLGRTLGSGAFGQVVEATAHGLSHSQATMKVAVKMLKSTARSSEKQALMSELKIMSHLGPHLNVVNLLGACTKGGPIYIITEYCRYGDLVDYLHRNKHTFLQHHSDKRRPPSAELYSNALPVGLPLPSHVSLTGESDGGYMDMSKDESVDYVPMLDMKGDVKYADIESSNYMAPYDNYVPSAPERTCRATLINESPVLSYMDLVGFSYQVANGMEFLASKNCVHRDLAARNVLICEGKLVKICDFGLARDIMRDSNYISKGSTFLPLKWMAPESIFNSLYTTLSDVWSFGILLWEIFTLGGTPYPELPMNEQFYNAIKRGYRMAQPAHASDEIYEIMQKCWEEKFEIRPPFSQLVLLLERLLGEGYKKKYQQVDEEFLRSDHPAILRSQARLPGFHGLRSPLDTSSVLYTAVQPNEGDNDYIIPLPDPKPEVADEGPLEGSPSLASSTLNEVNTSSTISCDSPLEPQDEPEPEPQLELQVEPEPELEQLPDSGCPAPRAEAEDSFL
# How it was run: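 HS27 human fibroblasts were pretreated with compound for 1 h, stimulated with PDGF-BB for 5 min, then lysed. Phospho-PDGFR beta was measured by sandwich ELISA, and IC50 was taken as the concentration giving 50 percent of control from a 4-parameter logistic fit.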
# [4] = target: T3, PDGFR beta; experiment: Phospho PDGFR LICOR Cell Assay (Example B); assay type: cell-based; conditions: averaged IC50; PDGFR beta phosphorylation in HS27 human fibroblast cell line, PDGF-BB stimulation 10 minutes, normalized to total ERK
# How it was run: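 Read-out is in-cell phospho-PDGFRβ/total-ERK infrared immunofluorescence in HS27 fibroblasts. Cells got 1 h compound exposure before a 10 min PDGF-BB challenge. A 4-parameter logistic fit gave IC50 as the concentration yielding 50 percent of control.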
Compound,IC50 [1] [µM],IC50 [2] [µM],IC50 [3] [µM],IC50 [4] [µM]
"Cc1nn(Cc2cccc(C3CC3)n2)c2cccc(NC(=O)c3cnc4cc(OCCN5CCN(C(C)C)CC5)ccn34)c12 [Example 16, N-(1-((6-cyclopropylpyridin-2-yl)methyl)-3-methyl-1H-indazol-4-yl)-7-(2-(4-isopropylpiperazin-1-yl)ethoxy)imidazo[1,2-a]pyridine-3-carboxamide]",0.0139,0.0348,0.0281,0.103
"CCN1CCN(CCOc2ccn3c(C(=O)Nc4cccc5c4c(C)nn5Cc4cccc(C5CC5)n4)cnc3c2)CC1 [Example 17, N-(1-((6-cyclopropylpyridin-2-yl)methyl)-3-methyl-1H-indazol-4-yl)-7-(2-(4-ethylpiperazin-1-yl)ethoxy)imidazo[1,2-a]pyridine-3-carboxamide]",0.011,0.0542,0.085,0.313
"Cc1nn(Cc2cccc(C3CC3)n2)c2cccc(NC(=O)c3cnc4cc(OCCN5CCOCC5)ccn34)c12 [Example 18, N-(1-((6-cyclopropylpyridin-2-yl)methyl)-3-methyl-1H-indazol-4-yl)-7-(2-morpholinoethoxy)imidazo[1,2-a]pyridine-3-carboxamide]",0.0102,0.0818,0.0599,0.674
"Cc1nn(Cc2cccc(C3CC3)n2)c2cccc(NC(=O)c3cnc4cc(OCCN5CCN(C)C(C)(C)C5)ccn34)c12 [Example 19, N-(1-((6-cyclopropylpyridin-2-yl)methyl)-3-methyl-1H-indazol-4-yl)-7-(2-(3,3,4-trimethylpiperazin-1-yl)ethoxy)imidazo[1,2-a]pyridine-3-carboxamide]",0.0094,0.0391,0.0432,0.247
"Cc1nn(Cc2cccc(C(C)C)n2)c2cccc(NC(=O)c3cnc4cc(OCCN5CCN(C)[C@@H](C)C5)ccn34)c12 [Example 25, (S)-7-(2-(3,4-dimethylpiperazin-1-yl)ethoxy)-N-(1-((6-isopropylpyridin-2-yl)methyl)-3-methyl-1H-indazol-4-yl)imidazo[1,2-a]pyridine-3-carboxamide]",0.0238,0.0514,0.0418,0.018
"Cc1nn(Cc2cccc(C3CC3)n2)c2cccc(NC(=O)c3cnc4cc(OCCN5CCN(C)[C@@H](C)C5)ccn34)c12 [Example 26, (S)—N-(1-((6-cyclopropylpyridin-2-yl)methyl)-3-methyl-1H-indazol-4-yl)-7-(2-(3,4-dimethylpiperazin-1-yl)ethoxy)imidazo[1,2-a]pyridine-3-carboxamide dihydrochloride]",0.0137,0.0279,0.0296,0.0632
"Cc1nn(Cc2cccc(C3CC3)n2)c2cccc(NC(=O)c3cnc4cc(OCCN5CCN(C)[C@H](C)C5)ccn34)c12 [Example 27, (R)—N-(1-((6-cyclopropylpyridin-2-yl)methyl)-3-methyl-1H-indazol-4-yl)-7-(2-(3,4-dimethylpiperazin-1-yl)ethoxy)imidazo[1,2-a]pyridine-3-carboxamide dihydrochloride]",0.0138,0.0362,0.0695,0.0726

# The remaining lines, values ahead:
IC50 [1] [µM],IC50 [2] [µM],IC50 [3] [µM],IC50 [4] [µM],Compound
0.014,0.0355,0.0059,0.0099,"Cc1nn(Cc2cccc(C(C)C)n2)c2cccc(NC(=O)c3cnc4cc(OCCN5CCN(C)[C@H](C)C5)ccn34)c12 [Example 28, (R)-7-(2-(3,4-dimethylpiperazin-1-yl)ethoxy)-N-(1-((6-isopropylpyridin-2-yl)methyl)-3-methyl-1H-indazol-4-yl)imidazo[1,2-a]pyridine-3-carboxamide]"
0.0227,0.0634,0.116,0.794,"Cc1nn(Cc2ccc(C(F)(F)F)cn2)c2cccc(NC(=O)c3cnc4cc(OCCN5CCN(C(C)C)CC5)ccn34)c12 [Example 44, 7-(2-(4-isopropylpiperazazin-1-yl)ethoxy)-N-(3-methyl-1-((5-(trifluoromethyl)pyridin-2-yl)methyl)-1H-indazol-4-yl)imidazo[1,2-a]pyridine-3-carboxamide]"
0.0134,0.166,0.347,0.113,"Cc1nn(Cc2cccc(C(F)(F)F)n2)c2cccc(NC(=O)c3cnc4cc(OCCN5CCN(C(C)C)CC5)ccn34)c12 [Example 45, 7-(2-(4-isopropylpiperazin-1-yl)ethoxy)-N-(3-methyl-1-((6-(trifluoromethyl)pyridin-2-yl)methyl)-1H-indazol-4-yl)imidazo[1,2-a]pyridine-3-carboxamide]"
0.0159,0.0485,0.0749,0.0065,"Cc1nn(Cc2cccc(C3CC3)n2)c2cccc(NC(=O)c3cnc4cc(OCCN5CCN(C)CC5)ccn34)c12 [Example 47, N-(1-((6-cyclopropylpyridin-2-yl)methyl)-3-methyl-1H-indazol-4-yl)-7-(2-(4-methylpiperazin-1-yl)ethoxy)imidazo[1,2-a]pyridine-3-carboxamide]"
0.0102,0.0307,0.0183,0.0048,"Cc1nn(Cc2cccc(C(C)C)n2)c2cccc(NC(=O)c3cnc4cc(OCCN5CCN(C)CC5)ccn34)c12 [Example 66, N-(1-((6-isopropylpyridin-2-yl)methyl)-3-methyl-1H-indazol-4-yl)-7-(2-(4-methylpiperazin-1-yl)ethoxy)imidazo[1,2-a]pyridine-3-carboxamide]"
0.0044,0.0301,0.0222,0.0109,"O=C(Nc1cccc2c1cnn2Cc1ccccc1)c1cnc2cc(OCC(O)CO)ccn12 (stereo not shown) [Example 91, N-(1-benzyl-1H-indazol-4-yl)-7-(2,3-dihydroxypropoxy)imidazo[1,2-a]pyridine-3-carboxamide]"
